Experimental data taken from paper PMC6747274, “Multifunctional Peptides from Spanish Dry-Cured Pork Ham: Endothelial Responses and Molecular Modeling Studies” (International Journal of Molecular Sciences, 2019).
Where no end group is shown, it is not given here.

Legend:
NF-κB, EA.hy926 cells = assay: NF-κB dual luciferase reporter assay; type: cell-based, human; settings: 300 µM peptide 16 h, then 50 ng/mL TNF-α 6 h
Protocol: To evaluate whether the synthetic peptides could modulate the NF-κB biological activity, a luciferase reporter assay was carried out, using the Renilla reporter as a specificity control and indicator of cell proliferation. In this study, NF-B activity was induced at a lower concentration of TNF-α (50 ng/mL) because of the high sensitivity of the approach. The normalized firefly/Renilla luciferase activity was reduced by around 25% of the activity when cells were pretreated with the BP1 (p = 0.002), BP2 (p = 0.003), and BP3 (p = 0.003) synthetic peptides (Figure 3). […] The basal activity for NF-κB was not inhibited by synthetic peptides without TNF-α stimulation (data not shown).
The dual luciferase assay has been widely used in cell lines to rapidly and accurately determine the activity of the promoter of NF-κB. […]
For luciferase reporter assays, 80,000 cells/well were seeded in 24-well plates overnight, followed by cotransfection with 0.5 μg pNF-κB:Luc/pRL-CMV at a ratio of 10:1 using 1.5 μL trans-it X2 reagent (Myrus®, Madison, WI, USA). […] NF-κB-dependent firefly luciferase activity and NF-κB-independent Renilla luciferase activity were assessed using Dual-Luciferase® Reporter Assay System (Promega, Madison, WI, USA) in a Luminometer Optocomp I (MGM Instruments). […]

[1] = tested on: eNOS mRNA, EA.hy926 cells; assay: eNOS mRNA expression by RT-PCR in EA.hy926 cells; type: cell-based, human; settings: 300 µM peptide 16 h, then 100 ng/mL TNF-α 6 h; p = 0.0003 (BP1), 0.04 (BP2)
Protocol: EA.hy926 cells, the hybrid human umbilical vein endothelial cell line, were obtained from the American Type Culture Collection (ATCC® CRL2922™, Rockville, MD, USA). Cells were cultured in high glucose Dulbecco’s Modified Eagle’s Medium (DMEM), containing 10% heat-inactivated fetal bovine serum (FBS, Biowest, Riverside, CA, USA) and 50 U/mL of penicillin and 50 µg/mL streptomycin (Sigma Aldrich Chemical Co., Saint Louis, MO, USA). Cells were grown in 5% CO2 in a humidified air incubator at 37 °C. Subculture was performed when 90% confluence was reached.
EA.hy926 were seeded in six-well plates at 0.25 × 10^6 cells/well in DMEM supplemented with 5% FBS. Cells were treated with 300 µM of each peptide for 16 h. Then, 100 ng/mL TNF-α or 300 µM H2O2 were added for an additional 6 h or 24 h, respectively.
Total RNA was extracted from EA.hy926 cells using 300 µL Trisure™ (Bioline, Taunton, MA, USA) reagent and Direct-zol™ RNA MiniPrep (Zymo Research Irvine, Irvine, CA, USA) according to the manufacturer’s protocol. Total RNA was reverse-transcribed into complementary DNA (Sensifast cDNATM Synthesis kit, Bioline, Taunton, MA, USA). The mRNA levels of the target genes were quantified by RT-PCR using SensiFAST SYBER Hi-ROX Kit (Bioline, Taunton, MA, USA) with StepOnePlus Real-Time PCR System (Applied Biosystems, Foster City, CA, USA). Briefly, 5 µL of 1:5 diluted cDNA was added to the qPCR reaction containing 10 μL 2X SensiFAST Mix and 400 nM of each primer in a total volume of 20 μL.
Specific and validated primers for human glyceraldehyde-3-phosphate dehydrogenase (GADPH), intercellular adhesion marker-1 (ICAM-1), vascular cell adhesion marker-1 (VCAM-1), endothelial nitric oxide synthase (eNOS), interleukin 6 (IL-6), catalase, SOD (Super Oxide Dismutase), NADPH (Nicotinamide Adenine Dinucleotide Phosphate oxidase) and Bax (proapoptosis regulator) genes were used (Sigma-Aldrich Chemical Co., Saint Louis, MO, USA). […]
The relative quantification of gene expression was determined by the comparative fold change […] method. […]

Row | Substance | NF-κB activation (in words) (NF-κB, EA.hy926 cells; BP4 p = 0.012) | eNOS mRNA expression vs TNF-α stimulated cells [1] | reduction of normalized firefly/Renilla NF-κB luciferase activity (NF-κB, EA.hy926 cells; vs TNF-α, p = 0.002 (BP1), 0.003 (BP2), 0.003 (BP3), three independent experiments)
1 | AAATP [BP4] | repressed by BP4 to a lesser degree | – | –
2 | KAAAATP [BP2] | – | recovered | around 25%
